The source of these data is ChEMBL document CHEMBL5352421, “Identification of novel piperazine-tethered phthalazines as selective CDK1 inhibitors endowed with in vitro anticancer activity toward the pancreatic cancer” (Eur J Med Chem, 2022).

Test [1] relates to BT-549. The test can be described thus: Antiproliferative activity against human BT-549 cells assessed as growth inhibition incubated at 10 uM for 24 hrs by MTT assay relative to control. It counts as functional. The following applies: read-out: GI. In general terms: Tetrazolium assays rely on reduction of a dye to a coloured formazan, in cell work by metabolically active cells.

Test [2] relates to SK-MEL-1. As to the kind of experiment: Antiproliferative activity against human SK-MEL-1 cells assessed as growth inhibition incubated at 10 uM for 24 hrs by MTT assay relative to control. It counts as functional. The note with it: read-out: GI.
Test [3] concerns HT-29. The test can be described thus: Antiproliferative activity against human HT-29 cells assessed as growth inhibition incubated at 10 uM for 24 hrs by MTT assay relative to control. The following applies: read-out: GI. It counts as functional.
Test [4] in a line: Selectivity index, ratio of IC50 for CDK2 (unknown origin) to CDK1 (unknown origin).
Test [5] deals with Fibroblast growth factor receptor (Homo sapiens, UniProt P22607+P11362+P22455+P21802). As to the kind of experiment: Inhibition of FGFR (unknown origin) by FRET assay. The class given is protein assay.
Test [6] concerns MCF7. As to the kind of experiment: Antiproliferative activity against human MCF7 cells assessed as growth inhibition incubated at 10 uM for 24 hrs by MTT assay relative to control. The note with it: read-out: GI. It counts as functional.
For test [7], the target named is Cyclin-dependent kinase 2 (Homo sapiens, UniProt P24941). As to the kind of experiment: Inhibition of CDK2 (unknown origin) by FRET assay.
Test [8] can be described thus: Antiproliferative activity against human MDA-PATC53 cells assessed as growth inhibition incubated for 24 hrs by MTT assay. The class given is functional, cell-based. The note with it: MDA-PATC53, 24 h.
In test [9] the test system is MOLT-4. The test can be described thus: Antiproliferative activity against human MOLT-4 cells assessed as growth inhibition incubated at 10 uM for 24 hrs by MTT assay relative to control. The following applies: read-out: GI. The class given is functional.
The nature of test [10]: Selectivity index, ratio of IC50 for CDK5 (unknown origin) to CDK1 (unknown origin).
Test [11] has as its target Insulin-like growth factor 1 receptor (Homo sapiens, UniProt P08069). As to the kind of experiment: Inhibition of IGF1R (unknown origin) by FRET assay.
For test [12], the system named is T84. As to the kind of experiment: Antiproliferative activity against human T84 cells assessed as growth inhibition incubated at 10 uM for 24 hrs by MTT assay relative to control. It counts as functional. The note with it: read-out: GI.
The target of test [13] is T1, Tyrosine-protein kinase receptor UFO (Homo sapiens, UniProt P30530).
T1 sequence (P30530 whole entry): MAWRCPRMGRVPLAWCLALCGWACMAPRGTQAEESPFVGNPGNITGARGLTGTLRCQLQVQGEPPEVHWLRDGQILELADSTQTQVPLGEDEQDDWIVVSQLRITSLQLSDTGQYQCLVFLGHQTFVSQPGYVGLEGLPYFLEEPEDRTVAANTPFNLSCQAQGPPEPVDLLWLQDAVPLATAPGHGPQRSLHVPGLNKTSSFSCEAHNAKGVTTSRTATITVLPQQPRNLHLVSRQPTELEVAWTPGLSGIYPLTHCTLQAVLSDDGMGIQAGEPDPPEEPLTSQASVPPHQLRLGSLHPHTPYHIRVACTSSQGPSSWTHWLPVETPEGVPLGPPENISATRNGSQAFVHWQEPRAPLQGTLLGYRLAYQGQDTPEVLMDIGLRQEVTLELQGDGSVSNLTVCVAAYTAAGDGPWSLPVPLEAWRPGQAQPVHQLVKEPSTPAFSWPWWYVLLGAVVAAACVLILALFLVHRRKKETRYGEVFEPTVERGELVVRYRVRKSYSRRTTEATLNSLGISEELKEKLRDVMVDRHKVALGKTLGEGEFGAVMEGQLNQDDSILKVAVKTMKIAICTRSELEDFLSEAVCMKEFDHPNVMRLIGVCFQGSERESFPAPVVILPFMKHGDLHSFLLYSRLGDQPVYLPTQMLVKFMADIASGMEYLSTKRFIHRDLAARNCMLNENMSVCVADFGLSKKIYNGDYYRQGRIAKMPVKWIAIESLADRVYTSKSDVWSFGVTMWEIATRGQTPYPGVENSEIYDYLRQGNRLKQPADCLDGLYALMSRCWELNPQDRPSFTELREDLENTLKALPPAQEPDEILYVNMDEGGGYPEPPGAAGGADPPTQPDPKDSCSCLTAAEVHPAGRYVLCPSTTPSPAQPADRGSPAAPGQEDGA
The test can be described thus: Inhibition of AXL (unknown origin) by FRET assay.

For test [14], the system named is A-375. The test can be described thus: Antiproliferative activity against human A-375 cells assessed as growth inhibition incubated at 10 uM for 24 hrs by MTT assay relative to control. The following applies: read-out: GI. It counts as functional.
For test [15], the target named is Protein-tyrosine kinase 2-beta (Homo sapiens, UniProt Q14289). As to the kind of experiment: Inhibition of PTK2B (unknown origin) by FRET assay.
Protein-tyrosine kinase 2-beta, sequence (Q14289 whole entry): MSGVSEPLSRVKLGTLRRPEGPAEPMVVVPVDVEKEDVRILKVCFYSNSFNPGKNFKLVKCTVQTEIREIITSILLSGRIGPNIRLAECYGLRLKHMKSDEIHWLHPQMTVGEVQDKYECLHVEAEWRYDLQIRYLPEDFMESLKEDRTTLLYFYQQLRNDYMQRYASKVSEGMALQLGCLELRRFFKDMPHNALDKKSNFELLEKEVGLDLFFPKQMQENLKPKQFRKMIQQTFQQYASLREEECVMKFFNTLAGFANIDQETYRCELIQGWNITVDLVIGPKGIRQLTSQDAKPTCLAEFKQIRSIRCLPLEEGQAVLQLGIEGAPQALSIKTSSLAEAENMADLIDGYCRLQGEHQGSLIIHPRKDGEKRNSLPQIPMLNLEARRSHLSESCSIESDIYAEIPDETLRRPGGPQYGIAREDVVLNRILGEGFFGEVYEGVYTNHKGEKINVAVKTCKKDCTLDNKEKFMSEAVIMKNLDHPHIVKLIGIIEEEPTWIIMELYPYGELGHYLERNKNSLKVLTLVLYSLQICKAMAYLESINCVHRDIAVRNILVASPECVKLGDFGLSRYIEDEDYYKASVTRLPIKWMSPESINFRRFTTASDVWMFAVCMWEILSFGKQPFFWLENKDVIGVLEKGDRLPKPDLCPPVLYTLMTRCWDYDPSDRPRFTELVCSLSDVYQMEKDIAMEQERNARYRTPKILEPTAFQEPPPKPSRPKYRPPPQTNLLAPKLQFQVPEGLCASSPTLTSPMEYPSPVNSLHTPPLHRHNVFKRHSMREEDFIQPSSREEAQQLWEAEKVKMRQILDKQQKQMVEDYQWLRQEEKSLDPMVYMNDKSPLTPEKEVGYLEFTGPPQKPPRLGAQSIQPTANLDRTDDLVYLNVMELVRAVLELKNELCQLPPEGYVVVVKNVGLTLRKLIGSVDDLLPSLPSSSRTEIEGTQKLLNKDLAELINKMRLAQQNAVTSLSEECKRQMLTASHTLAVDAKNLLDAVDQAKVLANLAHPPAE
The subject of test [16] is G-361. The test can be described thus: Antiproliferative activity against human G-361 cells assessed as growth inhibition incubated at 10 uM for 24 hrs by MTT assay relative to control. The following applies: read-out: GI. The class given is functional.
The target of test [17] is Serine/threonine-protein kinase B-raf (Homo sapiens, UniProt P15056). As to the kind of experiment: Inhibition of BRAF (unknown origin) by FRET assay.
Serine/threonine-protein kinase B-raf, sequence (P15056 whole entry): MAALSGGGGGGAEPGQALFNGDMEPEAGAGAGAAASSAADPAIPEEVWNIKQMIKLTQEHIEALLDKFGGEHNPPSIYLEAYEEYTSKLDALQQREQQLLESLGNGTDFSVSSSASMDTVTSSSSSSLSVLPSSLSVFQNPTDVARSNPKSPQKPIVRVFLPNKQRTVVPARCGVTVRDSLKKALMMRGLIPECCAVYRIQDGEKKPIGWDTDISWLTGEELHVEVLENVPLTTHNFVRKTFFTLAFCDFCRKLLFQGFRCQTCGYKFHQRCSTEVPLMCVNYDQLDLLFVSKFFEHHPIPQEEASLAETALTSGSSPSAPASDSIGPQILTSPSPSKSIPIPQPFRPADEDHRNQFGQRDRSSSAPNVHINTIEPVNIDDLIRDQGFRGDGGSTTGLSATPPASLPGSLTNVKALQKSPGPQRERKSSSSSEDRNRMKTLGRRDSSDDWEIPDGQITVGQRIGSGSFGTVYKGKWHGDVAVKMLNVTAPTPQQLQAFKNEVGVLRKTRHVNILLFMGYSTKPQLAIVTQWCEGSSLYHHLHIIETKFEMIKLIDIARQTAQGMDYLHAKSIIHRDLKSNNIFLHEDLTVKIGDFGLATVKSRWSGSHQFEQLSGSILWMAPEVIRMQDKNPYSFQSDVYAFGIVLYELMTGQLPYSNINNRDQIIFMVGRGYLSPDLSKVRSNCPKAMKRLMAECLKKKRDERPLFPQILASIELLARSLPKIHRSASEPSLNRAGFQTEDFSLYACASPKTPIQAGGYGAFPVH
Test [18] deals with KG-1. As to the kind of experiment: Antiproliferative activity against human KG-1 cells assessed as growth inhibition incubated at 10 uM for 24 hrs by MTT assay relative to control. It counts as functional. The note with it: read-out: GI.
Test [19] is described as follows: Antiproliferative activity against human MDA-PATC53 cells assessed as growth inhibition incubated at 10 uM for 24 hrs by MTT assay relative to control. The class given is functional. The note with it: read-out: GI.
Test [20] deals with Cyclin-dependent kinase 5 (Homo sapiens, UniProt Q00535). The test can be described thus: Inhibition of CDK5 (unknown origin) by FRET assay.
Cyclin-dependent kinase 5, sequence (Q00535 whole entry): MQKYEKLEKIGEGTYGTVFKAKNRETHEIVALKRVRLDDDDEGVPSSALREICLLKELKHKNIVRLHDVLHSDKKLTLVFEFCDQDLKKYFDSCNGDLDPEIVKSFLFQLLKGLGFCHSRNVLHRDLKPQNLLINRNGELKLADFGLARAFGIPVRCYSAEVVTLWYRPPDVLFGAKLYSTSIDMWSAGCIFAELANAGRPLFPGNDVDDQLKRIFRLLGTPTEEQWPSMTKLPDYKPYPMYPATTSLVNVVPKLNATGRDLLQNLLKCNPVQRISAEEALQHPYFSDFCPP
In test [21] the target is Tyrosine-protein kinase JAK1 (Homo sapiens, UniProt P23458). The test can be described thus: Inhibition of JAK1 (unknown origin) by FRET assay.
Tyrosine-protein kinase JAK1, sequence (P23458 whole entry): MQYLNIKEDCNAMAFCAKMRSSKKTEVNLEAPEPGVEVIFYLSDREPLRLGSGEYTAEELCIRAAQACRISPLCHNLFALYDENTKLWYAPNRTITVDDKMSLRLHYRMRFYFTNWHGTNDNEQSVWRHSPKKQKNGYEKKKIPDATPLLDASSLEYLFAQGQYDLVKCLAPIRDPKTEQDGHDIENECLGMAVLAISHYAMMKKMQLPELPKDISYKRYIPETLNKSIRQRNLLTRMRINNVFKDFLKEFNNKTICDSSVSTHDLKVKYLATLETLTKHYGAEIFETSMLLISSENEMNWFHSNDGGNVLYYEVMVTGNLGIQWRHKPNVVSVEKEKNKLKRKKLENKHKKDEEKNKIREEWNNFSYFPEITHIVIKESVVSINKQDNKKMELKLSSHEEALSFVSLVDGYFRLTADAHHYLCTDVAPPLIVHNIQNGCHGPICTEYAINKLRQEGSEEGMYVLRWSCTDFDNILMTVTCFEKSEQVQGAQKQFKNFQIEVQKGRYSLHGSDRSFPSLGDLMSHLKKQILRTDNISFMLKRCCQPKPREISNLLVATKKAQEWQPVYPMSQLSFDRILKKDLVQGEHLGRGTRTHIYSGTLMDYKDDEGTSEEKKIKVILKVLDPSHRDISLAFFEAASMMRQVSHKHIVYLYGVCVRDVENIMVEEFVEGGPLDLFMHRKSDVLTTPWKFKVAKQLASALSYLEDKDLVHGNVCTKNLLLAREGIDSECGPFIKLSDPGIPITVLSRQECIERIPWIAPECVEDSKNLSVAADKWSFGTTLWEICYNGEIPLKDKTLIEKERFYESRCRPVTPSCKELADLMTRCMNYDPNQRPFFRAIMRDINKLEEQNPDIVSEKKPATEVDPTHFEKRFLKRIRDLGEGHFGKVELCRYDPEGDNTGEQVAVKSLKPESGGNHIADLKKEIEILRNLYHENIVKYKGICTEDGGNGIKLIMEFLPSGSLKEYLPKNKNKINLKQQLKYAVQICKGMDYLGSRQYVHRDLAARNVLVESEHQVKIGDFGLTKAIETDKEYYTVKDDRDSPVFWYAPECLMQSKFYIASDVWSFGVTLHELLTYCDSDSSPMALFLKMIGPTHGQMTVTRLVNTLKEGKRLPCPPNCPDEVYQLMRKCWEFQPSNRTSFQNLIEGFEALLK
Test [22] in a line: Antiproliferative activity against human PL45 cells assessed as growth inhibition incubated for 24 hrs by MTT assay. It counts as functional, cell-based. The note with it: PL45, 24 h.
For test [23], the target named is Cyclin-dependent kinase 1 (Homo sapiens, UniProt P06493). The test can be described thus: Inhibition of CDK1 (unknown origin) by FRET assay.
Cyclin-dependent kinase 1, sequence (P06493 whole entry): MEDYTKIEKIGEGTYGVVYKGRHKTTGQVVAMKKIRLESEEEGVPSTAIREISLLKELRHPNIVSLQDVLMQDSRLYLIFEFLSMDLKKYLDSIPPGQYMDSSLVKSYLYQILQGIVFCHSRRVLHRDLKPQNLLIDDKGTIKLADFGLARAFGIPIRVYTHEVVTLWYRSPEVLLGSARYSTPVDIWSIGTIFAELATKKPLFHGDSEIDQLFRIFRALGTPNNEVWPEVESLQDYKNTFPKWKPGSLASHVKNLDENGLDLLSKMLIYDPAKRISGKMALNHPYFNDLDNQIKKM
A short description of test [24]: Antiproliferative activity against human PL45 cells assessed as growth inhibition incubated at 10 uM for 24 hrs by MTT assay relative to control. It counts as functional. The following applies: read-out: GI.

Insulin-like growth factor 1 receptor, sequence (P08069 31-736 limits assumed): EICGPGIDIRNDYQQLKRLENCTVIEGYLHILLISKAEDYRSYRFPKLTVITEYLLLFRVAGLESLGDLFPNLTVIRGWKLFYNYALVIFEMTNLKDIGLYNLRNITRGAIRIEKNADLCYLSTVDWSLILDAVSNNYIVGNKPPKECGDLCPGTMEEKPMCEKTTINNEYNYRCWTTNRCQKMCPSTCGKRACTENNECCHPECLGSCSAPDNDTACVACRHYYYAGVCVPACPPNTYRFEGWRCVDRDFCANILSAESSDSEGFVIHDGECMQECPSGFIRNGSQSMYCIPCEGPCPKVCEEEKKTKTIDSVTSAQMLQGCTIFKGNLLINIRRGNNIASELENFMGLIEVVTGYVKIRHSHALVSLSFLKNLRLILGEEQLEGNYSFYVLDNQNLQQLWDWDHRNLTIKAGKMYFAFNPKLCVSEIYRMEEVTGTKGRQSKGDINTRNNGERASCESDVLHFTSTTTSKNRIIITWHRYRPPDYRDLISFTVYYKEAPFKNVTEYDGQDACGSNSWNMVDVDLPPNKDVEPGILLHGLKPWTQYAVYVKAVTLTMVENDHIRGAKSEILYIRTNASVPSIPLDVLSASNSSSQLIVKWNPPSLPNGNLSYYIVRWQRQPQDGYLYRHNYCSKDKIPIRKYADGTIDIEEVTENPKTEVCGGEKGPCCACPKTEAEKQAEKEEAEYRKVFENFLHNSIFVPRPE
Insulin-like growth factor 1 receptor, sequence (P08069 741-1367 limits assumed): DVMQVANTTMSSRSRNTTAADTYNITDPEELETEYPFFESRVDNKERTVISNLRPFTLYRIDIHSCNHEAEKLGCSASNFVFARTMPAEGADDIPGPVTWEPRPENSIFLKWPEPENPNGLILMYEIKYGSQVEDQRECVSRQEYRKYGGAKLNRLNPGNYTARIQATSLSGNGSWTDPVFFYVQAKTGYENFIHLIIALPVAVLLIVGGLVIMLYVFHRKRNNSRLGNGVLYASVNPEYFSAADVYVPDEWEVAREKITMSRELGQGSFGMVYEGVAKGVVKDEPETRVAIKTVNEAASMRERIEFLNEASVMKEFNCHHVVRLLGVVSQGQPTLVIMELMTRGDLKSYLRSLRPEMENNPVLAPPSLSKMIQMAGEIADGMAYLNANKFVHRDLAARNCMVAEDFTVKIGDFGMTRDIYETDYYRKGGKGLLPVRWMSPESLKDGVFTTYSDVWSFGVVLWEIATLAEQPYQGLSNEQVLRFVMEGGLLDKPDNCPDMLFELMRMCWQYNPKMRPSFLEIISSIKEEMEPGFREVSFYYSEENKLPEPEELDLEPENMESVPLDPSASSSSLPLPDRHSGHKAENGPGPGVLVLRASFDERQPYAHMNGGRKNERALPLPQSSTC

Take `COc1ccc(Cc2nnc(N3CCN(C(=S)Nc4ccccc4)CC3)c3ccccc23)cc1`: the inhibition of growth at 10 µM in [1] came to 13.2%; in test [2] it was 11.4%; in test [3], 16.9%; in [6], 14%; in [9] it was 28.7%; in test [12], 7.38%. Besides, the inhibition of growth at 10 µM in test [14] worked out at 17%; in [16] it was 4.21%; in [18] it was 13.9%; in [19], 76.2%; in test [24], 42.3%. The Ratio IC50 in test [4] worked out at 6.16; in [10], 11.7. The IC50 (in general, the concentration that gives 50% inhibition) in test [5] was 7.953 µM; in test [7], 0.524 µM; in test [8] it was 2.06 µM; in [11] it was 2.43 µM; in test [13], 1.17 µM; in test [15], 1.45 µM. For the same molecule, the IC50 in [17] stood at 4.73 µM; in test [20], 0.996 µM; in test [21], 3.55 µM; in [22], 13.3 µM; in test [23], 0.0851 µM.

With `COc1ccc(Cc2nnc(N3CCN(C(=O)c4ccccc4)CC3)c3ccccc23)cc1`, the inhibition of growth at 10 µM in test [1] was 19%; in test [2] it was 2.02%; in [3] it was 5.09%; in [6], 11.4%; in [9] it was 9.47%; in test [12], 18.3%. For the same molecule, the inhibition of growth at 10 µM in [14] was found to be 10.3%; in [16], 8.66%; in [18], 12.1%; in [19], 70.4%; in test [24], 44.6%. Further, the Ratio IC50 was 5 in [4] and 4.3 in test [10]. For the same molecule, the IC50 in test [5] amounted to 6.332 µM; in test [7] it was 0.455 µM; in test [8] it was 4.07 µM; in test [11] it was 1.53 µM; in test [13] it was 5.49 µM; in test [15], 4.33 µM. The IC50 came to 3.26 µM in test [17]; 0.391 µM in [20]; 5.6 µM in test [21]; 12.9 µM in test [22]; 0.091 µM in test [23].

On to `COc1cccc(NC(=S)N2CCN(c3nnc(Cc4ccccc4)c4ccccc34)CC2)c1`, for which the inhibition of growth at 10 µM amounted to 52.1% in test [1]; 49.3% in test [2]; 60.2% in [3]; 34.2% in test [6]; 31.2% in test [9]; 49.7% in [12]. For the same molecule, the inhibition of growth at 10 µM in test [14] is 60.1%; in test [16], 31.2%; in [18] it was 28.5%; in test [19] it was 76.3%; in test [24] it was 66%. Moreover, the Ratio IC50 in test [4] worked out at 4.82; in test [10], 7.98. The IC50 was 3.853 µM in [5]; 0.426 µM in test [7]; 3.88 µM in [8]; 1.13 µM in test [11]; 7.95 µM in test [13]; 4.49 µM in test [15]. Besides, the IC50 in test [17] is 3.88 µM; in test [20], 0.705 µM; in test [21], 3.54 µM; in test [22] it was 5.76 µM; in test [23], 0.0884 µM.
